Test results from ChEMBL document CHEMBL4359871, “Novel electrophilic amides amenable by the Ugi reaction perturb thioredoxin system via thioredoxin reductase 1 (TrxR1) inhibition: Identification of DVD-445 as a new lead compound for anticancer therapy” (Eur J Med Chem, 2019).
Calls of active or inactive are those of the source. The rule behind the calls is not given here.

Columns and labels:
HaCaT [1] = assay: Induction of RNS generation in human HaCaT cells incubated for 24 hrs by DHR staining based flow cytometry; assay type: cell-based
[2] = biological target: T1, Thioredoxin reductase 1, cytoplasmic (Rattus norvegicus) (UniProt O89049); assay: […] inhibition of rat TrxR1 using DTNB as substrate preincubated for 15 mins in presence of NADPH followed by substrate addition and measured for 20 mins by Ellman's method
T1 sequence (whole entry): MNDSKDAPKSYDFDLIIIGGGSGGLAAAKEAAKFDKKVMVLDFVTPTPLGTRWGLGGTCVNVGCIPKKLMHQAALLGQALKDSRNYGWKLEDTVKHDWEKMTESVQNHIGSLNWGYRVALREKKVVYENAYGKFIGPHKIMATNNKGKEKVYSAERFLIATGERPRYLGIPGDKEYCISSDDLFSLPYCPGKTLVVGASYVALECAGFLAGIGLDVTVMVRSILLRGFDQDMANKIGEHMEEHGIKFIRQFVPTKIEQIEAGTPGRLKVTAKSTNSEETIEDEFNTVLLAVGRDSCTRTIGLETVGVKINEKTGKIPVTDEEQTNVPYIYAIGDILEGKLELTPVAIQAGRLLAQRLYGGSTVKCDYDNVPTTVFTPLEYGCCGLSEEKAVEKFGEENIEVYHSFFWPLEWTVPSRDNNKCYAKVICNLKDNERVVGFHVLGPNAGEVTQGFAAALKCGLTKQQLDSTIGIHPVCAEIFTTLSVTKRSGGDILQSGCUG

SH-SY5Y [3] = assay: Induction of apoptosis in human SH-SY5Y cells assessed as viable cells incubated for 48 hrs by annexin V FITC and propidium iodide staining based flow cytometry (reference value: 92.44 %); assay type: functional
[4] = Induction of apoptosis in human HaCaT cells assessed as viable cells incubated for 48 hrs by annexin V FITC and propidium iodide staining based flow cytometry (reference value: 95.78 %); assay type: cell-based; details: read-out: Activity
SH-SY5Y [5] = assay: Induction of apoptosis in human SH-SY5Y cells assessed as necrotic cells incubated for 48 hrs by annexin V FITC and propidium iodide staining based flow cytometry (reference value: 5.75 %); assay type: functional
SH-SY5Y [6] = assay: Induction of RNS generation in human SH-SY5Y cells incubated for 24 hrs by DHR staining based flow cytometry; assay type: functional
HaCaT [7] = assay: Induction of ROS generation in human HaCaT cells incubated for 24 hrs by DHE staining based flow cytometry; assay type: cell-based
SH-SY5Y [8] = assay: Induction of ROS generation in human SH-SY5Y cells incubated for 24 hrs by DHE staining based flow cytometry; assay type: functional, cell-based
[9] = biological target: T2, Thioredoxin reductase 1, cytoplasmic (Homo sapiens, UniProt Q16881); assay: Inhibition of TrxR in human SH-SY5Y cells using DTNB as substrate preincubated for 15 mins followed by substrate addition and measured for 20 mins by Ellman's method; assay type: cell-based
T2 sequence (Q16881 whole entry): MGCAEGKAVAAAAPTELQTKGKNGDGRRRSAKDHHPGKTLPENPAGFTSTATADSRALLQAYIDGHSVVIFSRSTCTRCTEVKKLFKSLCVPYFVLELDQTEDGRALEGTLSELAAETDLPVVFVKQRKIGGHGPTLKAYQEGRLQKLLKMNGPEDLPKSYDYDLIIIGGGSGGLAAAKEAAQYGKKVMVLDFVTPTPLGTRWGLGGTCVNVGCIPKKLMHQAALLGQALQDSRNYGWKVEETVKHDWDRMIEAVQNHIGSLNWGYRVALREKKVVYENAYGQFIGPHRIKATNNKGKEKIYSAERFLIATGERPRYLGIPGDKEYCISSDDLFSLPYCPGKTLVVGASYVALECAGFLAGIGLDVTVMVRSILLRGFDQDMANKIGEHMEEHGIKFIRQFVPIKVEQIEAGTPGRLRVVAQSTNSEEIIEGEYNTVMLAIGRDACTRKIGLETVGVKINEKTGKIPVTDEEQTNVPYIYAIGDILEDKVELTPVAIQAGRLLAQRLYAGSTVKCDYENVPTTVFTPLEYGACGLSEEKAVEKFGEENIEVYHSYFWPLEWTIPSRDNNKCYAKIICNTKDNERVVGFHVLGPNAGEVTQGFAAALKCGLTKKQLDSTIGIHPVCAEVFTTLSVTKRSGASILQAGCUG

U-87 MG [10] = assay: Induction of RNS generation in human U87 cells incubated for 24 hrs by DHR staining based flow cytometry; assay type: functional, cell-based; details: U-87MG ATCC
HaCaT [11] = assay: Cytotoxicity against human HaCaT assessed as reduction in cell viability incubated for 72 hrs by MTT assay; assay type: cell-based
SH-SY5Y [12] = assay: Cytotoxicity against human SH-SY5Y cells assessed as reduction in cell viability incubated for 72 hrs by MTT assay; assay type: functional, cell-based
SH-SY5Y [13] = assay: Induction of apoptosis in human SH-SY5Y cells assessed as early apoptotic cells incubated for 48 hrs by annexin V FITC and propidium iodide staining based flow cytometry (reference value: 0.44 %); assay type: functional
U-87 MG [14] = assay: Cytotoxicity against human U87 cells assessed as reduction in cell viability incubated for 72 hrs by MTT assay; assay type: functional, cell-based, U-87MG ATCC
[15] = biological target: T3, Thioredoxin reductase 1, cytoplasmic (Rattus norvegicus, UniProt O89049); assay: Inhibition of rat TrxR1 using DTNB as substrate preincubated for 15 mins followed by substrate addition and measured for 20 mins by Ellman's method
T3 sequence (O89049 whole entry): T1 sequence (whole entry)

HaCaT [16] = assay: Induction of apoptosis in human HaCaT cells assessed as early apoptotic cells incubated for 48 hrs by annexin V FITC and propidium iodide staining based flow cytometry (reference value: 0.02 %); assay type: cell-based
[17] = biological target: T2, Thioredoxin reductase 1, cytoplasmic; assay: Inhibition of TrxR1 (unknown origin) using DTNB as substrate preincubated for 30 mins in presence of insulin followed by substrate addition by colorimetry
HaCaT [18] = assay: Induction of apoptosis in human HaCaT cells assessed as late apoptotic cells incubated for 48 hrs by annexin V FITC and propidium iodide staining based flow cytometry (reference value: 0.46 %); assay type: cell-based
HaCaT [19] = assay: Induction of apoptosis in human HaCaT cells assessed as necrotic cells incubated for 48 hrs by annexin V FITC and propidium iodide staining based flow cytometry (reference value: 2.74 %); assay type: cell-based
SH-SY5Y [20] = assay: Induction of apoptosis in human SH-SY5Y cells assessed as late apoptotic cells incubated for 48 hrs by annexin V FITC and propidium iodide staining based flow cytometry (reference value: 1.37 %); assay type: functional
PBMC = assay: Cytotoxicity against human PBMC assessed as reduction in cell viability incubated for 72 hrs by MTT assay; assay type: cell-based
U-87 MG [21] = assay: Induction of ROS generation in human U87 cells incubated for 24 hrs by DHE staining based flow cytometry; assay type: functional, cell-based; details: U-87MG ATCC

For `COc1cc(C(C(=O)NC(C)(C)C)N(CCC(C)C)C(=O)/C=C/C(=O)c2ccc(F)cc2)cc(OC)c1OC` (stereo unspecified), the Activity (HaCaT [1]) was “Non-Toxic”, the inhibition [2] was “Active” and the Activity (SH-SY5Y [3]) was 37.57%. The viability at 48 h [4] was 65.3%, the Activity (SH-SY5Y [5]) was 61.97% and the Activity (SH-SY5Y [6]) was “>=30%”. The Activity (HaCaT [7]) was “Non-Toxic”, the Activity (SH-SY5Y [8]) was “inactive” and the IC50 [9] was 8580 nM. For the same compound, the Activity (U-87 MG [10]) was “inactive”, the IC50 (HaCaT [11]) was 1050 nM and the IC50 (SH-SY5Y [12]) was 2960 nM. It also gave an Activity (SH-SY5Y [13]) of 0.07%, an IC50 (U-87 MG [14]) of 2920 nM and an IC50 [15] of 1250 nM. The Activity (HaCaT [16]) was 0.14%, the IC50 [17] was 2510 nM and the Activity (HaCaT [18]) was 5.06%. It also gave an Activity (HaCaT [19]) of 29.45%, an Activity (SH-SY5Y [20]) of 0.39% and an IC50 (PBMC) of 7290 nM. The Activity (U-87 MG [21]) was “inactive”.
Compound `COc1cc(/C=C/C(=O)N2CCC=CC2=O)cc(OC)c1OC` [PIPLARTINE] has an IC50 (HaCaT [11]) of 3030 nM, an IC50 (SH-SY5Y [12]) of 5940 nM and an IC50 (U-87 MG [14]) of 7180 nM.
For `COc1ccc(C(C(=O)NC(C)(C)C)N(C(=O)/C=C/C(=O)c2ccc(C)cc2)C2CC2)cc1OC` (stereo unspecified), the IC50 [9] was 76600 nM.
Compound `COc1ccc(C(C(=O)NC2CCCCC2)N(CC(C)C)C(=O)/C=C/C(=O)c2ccc(C)cc2)cc1` (stereo unspecified) has an IC50 [9] greater than 200000 nM.
With `Cc1ccc(C(=O)/C=C/C(=O)N(CC(C)C)C(C(=O)NC(C)(C)C)C(C)(C)C)cc1` (stereo unspecified) the IC50 [9] was greater than 200000 nM.
In the case of `COc1ccc(C(C(=O)NC(C)(C)C)N(C(=O)/C=C/C(=O)c2ccc(C)cc2)C(C)C)cc1` (stereo unspecified), the Activity (HaCaT [1]) is reported as “Non-Toxic”, the inhibition [2] is reported as “Active” and the Activity (SH-SY5Y [3]) is reported as 71.35%. For the same compound, the viability at 48 h [4] was 78.8%, the Activity (SH-SY5Y [5]) was 25.8% and the Activity (SH-SY5Y [6]) was “>=30%”. The Activity (HaCaT [7]) was “Non-Toxic”, the Activity (SH-SY5Y [8]) was “inactive” and the IC50 [9] was 16000 nM. The Activity (U-87 MG [10]) was “inactive”, the IC50 (HaCaT [11]) was 830 nM and the IC50 (SH-SY5Y [12]) was 900 nM. For the same compound, the Activity (SH-SY5Y [13]) was 0.71%, the IC50 (U-87 MG [14]) was 460 nM and the IC50 [15] was 1740 nM. For the same compound, the Activity (HaCaT [16]) was 0.22%, the IC50 [17] was 760 nM and the Activity (HaCaT [18]) was 2.92%. The Activity (HaCaT [19]) was 18.16%, the Activity (SH-SY5Y [20]) was 2.14% and the IC50 (PBMC) was 2100 nM. The Activity (U-87 MG [21]) was “inactive”.
`CCCN(C(=O)/C=C/C(=O)c1ccc(C)cc1)C(C(=O)NC1CCCCC1)c1ccc(C)cc1` (stereo unspecified) gave an IC50 [9] of 81600 nM.
